Reference: article PMC10994559 (PLOS Neglected Tropical Diseases, 2024)
Entries after “also recorded” stand apart in the source; their conditions may differ.

Assays:
Assay type in all cases: cell-based, Trypanosoma brucei
T. brucei BSF proteome = experiment: Label-free LC-MS/MS proteomics after PHT-39 exposure
Procedure: 4 x 10^7 cells were harvested by centrifugation (1000*g) after 48 h from cultures in logarithmic growth phase and washed thrice with PBS. Samples were subjected to lysis, tryptic digest and reductive alkylation using standard procedures. LC-MS/MS was performed by the OMICS Proteomics Facility at Charles University Biocev on an UltiMate 3000 RSLCnano System (Thermo Fisher Scientific) coupled to a Orbitrap Fusion mass spectrometer (Thermo Fisher Scientific). Mass spectra were analyzed by label-free quantification using MaxQuant version 2.1.0.0 [30] searching the T. brucei brucei 927 annotated protein database (release 57) from TriTrypDB [31]. Minimum peptide length was set at seven amino acids and false discovery rates of 0.01 were calculated at the levels of peptides, proteins, and modification sites based on the number of hits against the reversed sequence database. When the identified peptide sequence set of one protein contained the peptide set of another protein, these two proteins were assigned to the same protein group. P-values were calculated, applying t-test–based statistics using Perseus. Proteomics data have been deposited to the ProteomeXchange Consortium via the PRIDE partner repository with the data set identifier PXD043204.

T. brucei 2T1 RNAi lines = experiment: Dose response after targeted stem-loop RNAi knockdown
Procedure: Selected genes with the high reads were validated by individual RNAi targeting. Briefly, gene-specific RNAi fragments of 400–600 bp were amplified with PCR primers designed with RNAit tool (S1 Table) and cloned into pRPa^iSL to generate stem-loop, ‘hairpin’ dsRNA to induce RNAi knockdown. The AscI linearized plasmid was transfected into 2T1 cells and positive colonies were selected with hygromycin (2.5 μg/ml). Positive, puromycin sensitive clones were analysed by PHT-39 dose response analysis after 24 h tetracycline induction and compared to uninduced controls and parental lines.

T. brucei BSF = experiment: Cell cycle (nuclei/kinetoplast count, DAPI) after PHT-39 treatment; conditions: 1 x EC50, 24 h
Procedure: 10^6 cells were harvested by centrifugation (1000*g) after 24 h from cultures in logarithmic growth phase and washed once with serum-free HMI-9. After fixation in 2% formaldehyde cell were applied to a glass slide and mounted with Vectashield Antifade mounting medium with 4′,6-diamidino2-phenylindole (DAPI) for fluorescence microscopy imaging on a Leica TCS SP8 WLL SMD-FLIM inverted confocal microscope. The number of nuclei (N) and kinetoplasts (K) per cell were then counted for 100 cells in each respective replicate (n = 3), allowing determination of cell cycle stage.

[1] = 24 h tetracycline induction vs uninduced

CC[C@@H](C)[C@H](c1nc2ccccc2n1Cc1cn(-c2ccc(C(F)(F)F)cc2)nn1)N1C(=O)c2ccccc2C1=O [PHT-39]
Abundance change FAZ localized protein Tb927.1.4280 (T. brucei BSF proteome; 3.9 μM (1× EC50), 48 h): 0.62 fold
Abundance change Hsp104 homolog Tb927.2.5980 (T. brucei BSF proteome; 3.9 μM (1× EC50), 48 h): 1.4 fold
Abundance change PIP39 (Tb927.9.6090) (T. brucei BSF proteome; 3.9 μM (1× EC50), 48 h): 1.6 fold
Abundance change axonemal protein SAXO (Tb927.8.6240) (T. brucei BSF proteome; 3.9 μM (1× EC50), 48 h): 0.65 fold
PHT-39 ratio (protein abundance) (T. brucei BSF proteome; protein 2-oxoglutarate dehydrogenase E1 component, Tb927.11.1450): 1.73
PHT-39 ratio (protein abundance) (T. brucei BSF proteome; protein 2-oxoglutarate dehydrogenase E1 component, Tb927.11.9980): 1.93
PHT-39 ratio (protein abundance) (T. brucei BSF proteome; protein ACS1, Tb927.7.6180): - ∞
PHT-39 ratio (protein abundance) (T. brucei BSF proteome; protein Aconitase, Tb927.10.14000): 1.39
PHT-39 ratio (protein abundance) (T. brucei BSF proteome; protein CIF1 (TOEFAZ1), Tb927.11.15800): 0.46
PHT-39 ratio (protein abundance) (T. brucei BSF proteome; protein CIF3, Tb927.10.13100): - ∞
PHT-39 ratio (protein abundance) (T. brucei BSF proteome; protein CIF4, Tb927.10.8240): 0.88
PHT-39 ratio (protein abundance) (T. brucei BSF proteome; protein F1 alpha, Tb927.7.7430, Tb927.7.7420): 1.31
PHT-39 ratio (protein abundance) (T. brucei BSF proteome; protein F1 beta, Tb927.3.1380): 1.33
PHT-39 ratio (protein abundance) (T. brucei BSF proteome; protein F1 gamma, Tb927.10.180): 1.23
PHT-39 ratio (protein abundance) (T. brucei BSF proteome; protein F1 p18, Tb927.5.1710): 1.90
PHT-39 ratio (protein abundance) (T. brucei BSF proteome; protein FPRC, Tb927.10.6360): 0.72
PHT-39 ratio (protein abundance) (T. brucei BSF proteome; protein Fo 8, Tb927.4.3450): ∞
PHT-39 ratio (protein abundance) (T. brucei BSF proteome; protein Fo ATBTB1, Tb927.10.520): 1.48
PHT-39 ratio (protein abundance) (T. brucei BSF proteome; protein Fo ATBTB3, Tb927.11.6250): 1.53
PHT-39 ratio (protein abundance) (T. brucei BSF proteome; protein Fo ATBTB4, Tb927.10.9830): 1.36
PHT-39 ratio (protein abundance) (T. brucei BSF proteome; protein Fo ATBTB6, Tb927.11.1270): 1.40
PHT-39 ratio (protein abundance) (T. brucei BSF proteome; protein Fo ATBTB12, Tb927.5.3090): 3.78
PHT-39 ratio (protein abundance) (T. brucei BSF proteome; protein Fo OSCP, Tb927.10.8030): 2.93
PHT-39 ratio (protein abundance) (T. brucei BSF proteome; protein Fo d, Tb927.5.2930): 1.35
PHT-39 ratio (protein abundance) (T. brucei BSF proteome; protein Fo e, Tb927.11.600): 1.09
PHT-39 ratio (protein abundance) (T. brucei BSF proteome; protein Fo f, Tb927.3.1690): 1.36
PHT-39 ratio (protein abundance) (T. brucei BSF proteome; protein Fo i/j, Tb927.3.2880): 1.66
PHT-39 ratio (protein abundance) (T. brucei BSF proteome; protein Fo k, Tb927.7.840): 3.17
PHT-39 ratio (protein abundance) (T. brucei BSF proteome; protein Glutamate dehydrogenase, Tb927.9.5900): 1.53
PHT-39 ratio (protein abundance) (T. brucei BSF proteome; protein PIP39, Tb927.9.6090): 1.62
PHT-39 ratio (protein abundance) (T. brucei BSF proteome; protein PPDK, Tb927.11.6280): ∞
PHT-39 ratio (protein abundance) (T. brucei BSF proteome; protein Proline dehydrogenase, Tb927.7.210): 1.66
PHT-39 ratio (protein abundance) (T. brucei BSF proteome; protein SAXO, Tb927.8.6240): 0.65
PHT-39 ratio (protein abundance) (T. brucei BSF proteome; protein Tb927.1.4280): 0.63
Difference (LFQ intensity treated vs untreated) (T. brucei BSF proteome; protein Tb927.10.4770, phosphatidylinositol-4-phosphate 5-kinase, putative): 2.042
Difference (LFQ intensity treated vs untreated) (T. brucei BSF proteome; protein Tb927.4.3450, Mitochondrial ATP synthase subunit, putative): 5.909
Difference (LFQ intensity treated vs untreated) (T. brucei BSF proteome; protein Tb927.6.980;Tb927.6.970;Tb927.6.960;Tb927.6.1020;Tb927.6.1010, cysteine peptidase, Cathepsin L-like): 5.36
Difference (LFQ intensity treated vs untreated) (T. brucei BSF proteome; protein Tb927.7.2660, zinc finger protein family member, putative): 3.448
Difference (LFQ intensity treated vs untreated) (T. brucei BSF proteome; protein Tb927.9.12700, phospholipase A1, putative): 3.03
PHT-39 ratio (protein abundance) (T. brucei BSF proteome; protein citrate synthase, Tb927.10.13430): 1.66
PHT-39 ratio (protein abundance) (T. brucei BSF proteome; protein isocitrate dehydrogenase, Tb927.8.3690): 1.46
PHT-39 ratio (protein abundance) (T. brucei BSF proteome; protein mitochondrial malate dehydrogenase, Tb927.10.2560): 1.32
PHT-39 ratio (protein abundance) (T. brucei BSF proteome; protein succinyl-CoA ligase beta-chain, Tb927.10.7410): 1.79
PHT-39 ratio (protein abundance) (T. brucei BSF proteome; protein succinyl-CoA synthetase alpha subunit, Tb927.3.2230): 1.72
Sensitivity shift after RNAi of HSP104 homolog (ClpB1) Tb927.2.5980 (T. brucei 2T1 RNAi lines): did not elicit a significant PHT-39 sensitivity shift; also recorded: did not determine a significant sensitivity shift
Sensitivity shift after RNAi of nicotinamidase paralogs Tb927.9.3970 and Tb927.9.4040 (T. brucei 2T1 RNAi lines): did not elicit a significant PHT-39 sensitivity shift; also recorded: did not determine a significant sensitivity shift
EC50 shift after RNAi of miltefosine transporter Tb927.11.3350 (T. brucei 2T1 RNAi lines; [1]): mild but significant EC50 increase
Sensitivity shift after knockdown of ESAG5 (T. brucei 2T1 RNAi lines; [1]): very modest but significant sensitivity shift
Proportion of 2K1N cells, decreased to (T. brucei BSF): approximately 57%
Proportion of 2K2N cells, decreased to (T. brucei BSF): approximately 28%
